Values joined by “and” are separate entries in the source; they are usually repeats but may differ in a detail not shown here. Equal entries are not always repeated. Numbers after ± are expanded uncertainties.
Tests used:
[1] = 298.15 K
[2] = xn = mol fraction of the nth substance listed; conditions: 298.15 K

CCCCOC(C)=O [butyl ethanoate]
Conditions	surface tension liquid-gas [mN/m]
[1]	24.91 ± 0.3

CCCCOC(C)=O [butyl ethanoate] + O
[2]
Conditions	surface tension liquid-gas [mN/m]
x1 = 7.97e-05	63.74 ± 0.5
x1 = 7.99e-05	64.49 ± 0.51
x1 = 8.76e-05	63.71 ± 0.5
x1 = 8.81e-05	64.3 ± 0.5
x1 = 0.000104	62.6 ± 0.5
x1 = 0.000124	61.81 ± 0.49
x1 = 0.000131	61.47 ± 0.49
x1 = 0.000142	61.15 ± 0.49
x1 = 0.000173	59.3 ± 0.48
x1 = 0.000216	57.5 ± 0.47
x1 = 0.000274	55.53 ± 0.46
x1 = 0.000343	53.31 ± 0.44
x1 = 0.000439	51.12 ± 0.43
x1 = 0.000536	49.09 ± 0.42
x1 = 0.00067	46.9 ± 0.41
x1 = 0.000754	45.57 ± 0.4
x1 = 0.00081	44.42 ± 0.4
x1 = 0.000933	43.1 ± 0.39
x1 = 1	24.91 ± 0.3

CCOC(C)=O [ethyl acetate]
Conditions	surface tension liquid-gas [mN/m]
[1], Drop volume	23.93 ± 0.15

CCOC(C)=O [ethyl acetate] + O
[2], Drop volume
Conditions	surface tension liquid-gas [mN/m]
x1 = 0.0011	62.08 ± 0.9
x1 = 0.0013	60.95 ± 0.91
x1 = 0.0014	60.43 ± 0.91
x1 = 0.0017	59.33 ± 0.93
x1 = 0.0018	58.8 ± 0.83
x1 = 0.0025	56.64 ± 0.86
x1 = 0.0033	54.17 ± 0.82
x1 = 0.0044	51.16 ± 0.54
x1 = 0.0054	48.98 ± 0.46
x1 = 0.0061	47.92 ± 0.44
x1 = 0.008	44.22 ± 0.33
x1 = 0.0089	43.31 ± 0.3
x1 = 0.0118	41.37 ± 0.25
x1 = 0.0141	38.97 ± 0.28
x1 = 1	23.93 ± 0.15

COC(C)=O [methyl ethanoate]
Conditions	surface tension liquid-gas [mN/m]
[1], Drop volume	24.79 ± 0.2

COC(C)=O [methyl ethanoate] + O
[2], Drop volume
Conditions	surface tension liquid-gas [mN/m]
x1 = 0.004	61.87 ± 0.48
x1 = 0.0047	60.57 ± 0.48
x1 = 0.0056	59.67 ± 0.36
x1 = 0.0069	57.62 ± 0.36
x1 = 0.0093	54.72 ± 0.32
x1 = 0.0115	53.25 ± 0.29
x1 = 0.0147	49.91 ± 0.26
x1 = 0.0183	48.18 ± 0.23
x1 = 0.0214	46.68 ± 0.24
x1 = 0.0245	44.35 ± 0.23
x1 = 0.029	42.63 ± 0.21
x1 = 0.0341	40.26 ± 0.21
x1 = 0.0433	36.64 ± 0.2
x1 = 0.0523	33.49 ± 0.19
x1 = 0.0586	31.61 ± 0.18
x1 = 0.0702	29.12 ± 0.17
x1 = 1	24.79 ± 0.2

CCCOC(C)=O [propyl ethanoate]
Conditions	surface tension liquid-gas [mN/m]
[1], Drop volume	24.22 ± 0.16

CCCOC(C)=O [propyl ethanoate] + O
[2], Drop volume
Conditions	surface tension liquid-gas
x1 = 0.00017	65.86 ± 1.3 mN/m
x1 = 0.00023	64.54 ± 1.5 mN/m
x1 = 0.00031	62.64 ± 1.3 mN/m and 63.23 ± 1.4 mN/m
x1 = 0.00038	61.64 ± 1.3 mN/m
x1 = 0.00041	61.43 ± 1.3 mN/m
x1 = 0.00049	60.29 ± 1.3 mN/m
x1 = 0.00052	59.4 ± 1.2 mN/m
x1 = 0.00057	59.02 ± 1.2 mN/m
x1 = 0.00071	57.47 ± 1.1 mN/m
x1 = 0.00074	56.94 ± 1.1 mN/m
x1 = 0.00083	56.17 ± 1.1 mN/m
x1 = 0.00103	54.38 ± 1.5 mN/m
x1 = 0.00104	53.7 ± 1.5 mN/m
x1 = 0.00114	53.49 ± 1.5 mN/m
x1 = 0.00116	53.22 ± 1.5 mN/m
x1 = 0.00142	50.93 ± 1.6 mN/m and 51.11 ± 1.6 mN/m
x1 = 0.00158	49.17 ± 1.6 mN/m
x1 = 0.00159	49.3 ± 1.6 mN/m
x1 = 0.00208	46.76 ± 1.7 mN/m
x1 = 0.00239	45.44 ± 1.7 mN/m
x1 = 0.00318	42.65 ± 1.8 mN/m
x1 = 0.00355	41.31 ± 1.3 mN/m
x1 = 0.00367	40.63 ± 1.2 mN/m
x1 = 0.0038	40.55 ± 1.1 mN/m
x1 = 1	24.22 ± 0.16 mN/m

O [water]
Conditions	surface tension liquid-gas [mN/m]
[1], Drop volume	71.57 ± 0.27

O [water] + CCCCOC(C)=O
Conditions	surface tension liquid-gas [mN/m]
[2], x2 = 0	71.57 ± 0.54

O [water] + CCCOC(C)=O
Conditions	surface tension liquid-gas [mN/m]
[2], Drop volume, x2 = 0	71.57 ± 0.27

O [water] + CCOC(C)=O
Conditions	surface tension liquid-gas [mN/m]
[2], Drop volume, x2 = 0	71.57 ± 0.27

O [water] + COC(C)=O
Conditions	surface tension liquid-gas [mN/m]
[2], Drop volume, x2 = 0	71.57 ± 0.27
